The kinase profiling compilation of Christmann-Franck et al. (2016)

Tests used:
Assay in all cases: radiometric filter-binding kinase assay, Kinase HotSpot
Details in all cases: compound 0.5 µM; ATP 10 µM
AKT1 (human) = AKT1 (human) (UniProt P31749)
AKT2 (human) = AKT2 (human) (UniProt P31751)
CHEK1 (human) = CHEK1 (human) (UniProt O14757)
CSNK1G2 (human) = CSNK1G2 (human) (UniProt P78368)
EPHA3 (human) = EPHA3 (human) (UniProt P29320)
EPHA7 (human) = EPHA7 (human) (UniProt Q15375)
EPHB3 (human) = EPHB3 (human) (UniProt P54753)
EPHB4 (human) = EPHB4 (human) (UniProt P54760)
FES (human) = FES (human) (UniProt P07332)
FGFR3 (human) = FGFR3 (human) (UniProt P22607)
FLT1 (human) = FLT1 (human) (UniProt P17948)
FRK (human) = FRK (human) (UniProt P42685)
HIPK1 (human) = HIPK1 (human) (UniProt Q86Z02)
HIPK2 (human) = HIPK2 (human) (UniProt Q9H2X6)
IKBKE (human) = IKBKE (human) (UniProt Q14164)
MAP3K10 (human) = MAP3K10 (human) (UniProt Q02779)
MAP3K5 (human) = MAP3K5 (human) (UniProt Q99683)
MAP3K5 (human), sequence (Q99683 whole entry, looked up): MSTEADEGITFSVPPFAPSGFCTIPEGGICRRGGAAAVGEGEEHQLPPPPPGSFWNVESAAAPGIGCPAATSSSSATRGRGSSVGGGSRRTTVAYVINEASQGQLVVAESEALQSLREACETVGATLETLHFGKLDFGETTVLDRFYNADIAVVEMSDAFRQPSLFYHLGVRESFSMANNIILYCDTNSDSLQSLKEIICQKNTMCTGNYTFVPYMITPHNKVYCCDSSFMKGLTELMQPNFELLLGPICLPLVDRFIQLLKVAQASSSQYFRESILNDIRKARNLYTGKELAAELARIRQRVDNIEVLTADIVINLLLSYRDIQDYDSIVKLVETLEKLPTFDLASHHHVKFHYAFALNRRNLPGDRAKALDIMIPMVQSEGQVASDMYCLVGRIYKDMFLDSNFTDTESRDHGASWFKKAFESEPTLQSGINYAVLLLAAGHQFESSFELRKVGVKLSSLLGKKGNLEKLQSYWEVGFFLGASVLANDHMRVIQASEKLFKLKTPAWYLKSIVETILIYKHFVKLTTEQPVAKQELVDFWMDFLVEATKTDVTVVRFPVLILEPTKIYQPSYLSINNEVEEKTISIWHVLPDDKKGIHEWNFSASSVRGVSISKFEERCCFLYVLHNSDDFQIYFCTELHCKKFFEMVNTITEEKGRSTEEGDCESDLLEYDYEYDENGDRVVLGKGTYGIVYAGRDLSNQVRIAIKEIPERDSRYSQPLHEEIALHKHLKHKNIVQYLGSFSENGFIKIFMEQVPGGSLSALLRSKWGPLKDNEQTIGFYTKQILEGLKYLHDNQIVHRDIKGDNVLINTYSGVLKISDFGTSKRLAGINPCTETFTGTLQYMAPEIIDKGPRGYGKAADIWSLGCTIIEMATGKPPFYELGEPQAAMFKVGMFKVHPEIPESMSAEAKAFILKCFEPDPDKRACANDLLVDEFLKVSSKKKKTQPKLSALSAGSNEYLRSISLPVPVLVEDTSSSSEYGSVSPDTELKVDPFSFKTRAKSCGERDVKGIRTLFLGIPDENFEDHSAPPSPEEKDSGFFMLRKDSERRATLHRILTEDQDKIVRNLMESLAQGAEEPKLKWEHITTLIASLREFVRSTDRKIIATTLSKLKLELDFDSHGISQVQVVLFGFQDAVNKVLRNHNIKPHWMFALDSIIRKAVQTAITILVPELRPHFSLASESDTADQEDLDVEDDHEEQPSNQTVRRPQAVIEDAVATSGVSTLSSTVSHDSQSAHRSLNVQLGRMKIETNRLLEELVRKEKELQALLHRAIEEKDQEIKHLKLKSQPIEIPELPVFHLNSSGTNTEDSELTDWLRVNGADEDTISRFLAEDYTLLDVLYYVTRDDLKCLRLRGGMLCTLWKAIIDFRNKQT

MAP3K9 (human) = MAP3K9 (human) (UniProt P80192)
MAP3K9 (human), sequence (P80192 whole entry, looked up): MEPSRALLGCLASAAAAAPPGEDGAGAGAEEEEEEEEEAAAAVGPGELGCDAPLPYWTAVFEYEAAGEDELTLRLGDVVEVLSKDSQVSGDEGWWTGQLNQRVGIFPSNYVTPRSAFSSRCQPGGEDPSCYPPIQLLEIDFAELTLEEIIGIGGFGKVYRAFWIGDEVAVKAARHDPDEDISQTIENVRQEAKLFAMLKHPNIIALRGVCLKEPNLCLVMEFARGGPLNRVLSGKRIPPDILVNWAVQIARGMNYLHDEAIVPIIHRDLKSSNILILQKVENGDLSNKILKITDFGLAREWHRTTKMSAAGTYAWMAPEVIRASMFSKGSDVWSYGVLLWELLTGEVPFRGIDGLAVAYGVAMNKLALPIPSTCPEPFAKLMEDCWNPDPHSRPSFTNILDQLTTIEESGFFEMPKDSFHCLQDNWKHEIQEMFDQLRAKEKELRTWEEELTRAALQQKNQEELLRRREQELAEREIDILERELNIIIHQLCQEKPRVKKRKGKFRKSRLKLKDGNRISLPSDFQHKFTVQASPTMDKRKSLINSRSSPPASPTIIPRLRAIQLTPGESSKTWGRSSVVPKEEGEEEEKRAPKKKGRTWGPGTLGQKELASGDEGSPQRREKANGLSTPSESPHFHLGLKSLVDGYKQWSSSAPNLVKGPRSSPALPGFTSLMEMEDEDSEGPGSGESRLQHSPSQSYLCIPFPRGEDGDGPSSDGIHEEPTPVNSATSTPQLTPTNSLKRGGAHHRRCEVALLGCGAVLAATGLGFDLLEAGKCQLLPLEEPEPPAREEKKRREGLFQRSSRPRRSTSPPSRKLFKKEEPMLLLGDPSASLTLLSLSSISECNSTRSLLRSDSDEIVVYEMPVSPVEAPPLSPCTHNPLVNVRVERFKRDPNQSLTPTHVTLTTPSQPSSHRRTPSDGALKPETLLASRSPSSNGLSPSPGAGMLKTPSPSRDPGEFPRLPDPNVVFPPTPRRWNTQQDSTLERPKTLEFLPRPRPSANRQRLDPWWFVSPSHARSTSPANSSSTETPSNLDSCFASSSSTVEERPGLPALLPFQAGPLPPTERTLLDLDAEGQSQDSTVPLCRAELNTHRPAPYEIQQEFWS

MAP4K2 (human) = MAP4K2 (human) (UniProt Q12851)
MAPK1 (human) = MAPK1 (human) (UniProt P28482)
MAPK3 (human) = MAPK3 (human) (UniProt P27361)
MAPK8 (human) = MAPK8 (human) (UniProt P45983)
MAPK9 (human) = MAPK9 (human) (UniProt P45984)
MAPK9 (human), sequence (P45984 whole entry, looked up): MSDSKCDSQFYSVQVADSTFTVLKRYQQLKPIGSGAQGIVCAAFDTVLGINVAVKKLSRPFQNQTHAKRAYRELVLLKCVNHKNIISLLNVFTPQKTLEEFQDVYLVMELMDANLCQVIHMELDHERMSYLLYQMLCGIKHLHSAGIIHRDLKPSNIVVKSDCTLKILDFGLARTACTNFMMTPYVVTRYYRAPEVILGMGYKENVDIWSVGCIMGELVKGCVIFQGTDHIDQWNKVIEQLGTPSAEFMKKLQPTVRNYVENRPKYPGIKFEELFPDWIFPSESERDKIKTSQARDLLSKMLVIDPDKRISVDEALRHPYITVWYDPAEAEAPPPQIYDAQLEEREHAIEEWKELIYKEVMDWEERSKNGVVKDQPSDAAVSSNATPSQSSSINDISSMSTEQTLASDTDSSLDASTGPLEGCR

MINK1 (human) = MINK1 (human) (UniProt Q8N4C8)
MLTK (human) = MLTK (human) (UniProt Q9NYL2)
PAK6 (human) = PAK6 (human) (UniProt Q9NQU5)
PAK7 (human) = PAK7 (human) (UniProt Q9P286)
PBK (human) = PBK (human) (UniProt Q96KB5)
PBK (human), sequence (Q96KB5 whole entry, looked up): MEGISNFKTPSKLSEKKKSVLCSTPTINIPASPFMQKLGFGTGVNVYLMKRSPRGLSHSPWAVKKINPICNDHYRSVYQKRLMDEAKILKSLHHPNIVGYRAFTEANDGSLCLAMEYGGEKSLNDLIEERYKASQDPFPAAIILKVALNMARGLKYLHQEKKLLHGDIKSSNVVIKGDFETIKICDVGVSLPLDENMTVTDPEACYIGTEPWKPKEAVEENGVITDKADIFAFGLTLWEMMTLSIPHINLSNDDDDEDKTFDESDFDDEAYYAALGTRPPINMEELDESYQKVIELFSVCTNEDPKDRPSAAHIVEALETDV

PDGFRB (human) = PDGFRB (human) (UniProt P09619)
PIM1 (human) = PIM1 (human) (UniProt P11309)
PIM2 (human) = PIM2 (human) (UniProt Q9P1W9)
PLK1 (human) = PLK1 (human) (UniProt P53350)
PNCK (human) = PNCK (human) (UniProt Q6P2M8)
PRKCA (human) = PRKCA (human) (UniProt P17252)
PRKCI (human) = PRKCI (human) (UniProt P41743)
RET (human) = RET (human) (UniProt P07949)
RET (human), sequence (P07949 whole entry, looked up): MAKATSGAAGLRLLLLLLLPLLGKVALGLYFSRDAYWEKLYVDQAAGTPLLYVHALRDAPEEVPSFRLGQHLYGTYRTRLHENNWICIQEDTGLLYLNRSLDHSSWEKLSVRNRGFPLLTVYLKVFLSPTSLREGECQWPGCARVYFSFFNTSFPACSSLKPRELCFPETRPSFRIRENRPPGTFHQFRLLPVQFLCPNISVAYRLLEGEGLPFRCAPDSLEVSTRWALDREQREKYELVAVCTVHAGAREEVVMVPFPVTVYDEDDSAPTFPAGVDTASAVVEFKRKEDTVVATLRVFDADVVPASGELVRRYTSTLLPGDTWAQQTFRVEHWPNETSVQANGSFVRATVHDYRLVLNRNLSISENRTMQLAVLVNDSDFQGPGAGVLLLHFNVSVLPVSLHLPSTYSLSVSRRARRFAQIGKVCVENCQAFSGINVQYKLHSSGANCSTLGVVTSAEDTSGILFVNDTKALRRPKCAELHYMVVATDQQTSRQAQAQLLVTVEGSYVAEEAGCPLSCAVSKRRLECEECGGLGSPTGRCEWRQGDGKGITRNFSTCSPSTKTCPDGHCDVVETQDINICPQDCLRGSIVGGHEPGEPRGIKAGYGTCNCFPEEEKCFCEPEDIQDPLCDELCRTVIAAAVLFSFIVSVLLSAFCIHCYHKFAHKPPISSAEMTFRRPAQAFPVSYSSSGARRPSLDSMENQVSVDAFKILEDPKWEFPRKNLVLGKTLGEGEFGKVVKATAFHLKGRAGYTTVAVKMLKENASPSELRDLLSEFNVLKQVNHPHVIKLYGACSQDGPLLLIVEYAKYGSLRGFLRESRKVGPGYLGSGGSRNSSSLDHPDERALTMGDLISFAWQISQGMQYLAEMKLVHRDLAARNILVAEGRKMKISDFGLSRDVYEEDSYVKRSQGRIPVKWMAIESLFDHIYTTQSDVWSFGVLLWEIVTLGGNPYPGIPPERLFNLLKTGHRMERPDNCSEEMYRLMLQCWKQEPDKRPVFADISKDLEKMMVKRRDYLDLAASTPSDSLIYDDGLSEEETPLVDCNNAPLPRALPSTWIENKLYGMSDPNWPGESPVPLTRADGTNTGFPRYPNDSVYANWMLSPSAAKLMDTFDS

RPS6KA2 KD1 KD2 (human) = RPS6KA2 KD1 KD2 (human) (UniProt Q15349)
SYK (human) = SYK (human) (UniProt P43405)
TGFBR2 (human) = TGFBR2 (human) (UniProt P37173)
TSSK2 (human) = TSSK2 (human) (UniProt Q96PF2)
TXK (human) = TXK (human) (UniProt P42681)
ULK2 (human) = ULK2 (human) (UniProt Q8IYT8)

AKT2 (human), sequence (P31751 whole entry, looked up): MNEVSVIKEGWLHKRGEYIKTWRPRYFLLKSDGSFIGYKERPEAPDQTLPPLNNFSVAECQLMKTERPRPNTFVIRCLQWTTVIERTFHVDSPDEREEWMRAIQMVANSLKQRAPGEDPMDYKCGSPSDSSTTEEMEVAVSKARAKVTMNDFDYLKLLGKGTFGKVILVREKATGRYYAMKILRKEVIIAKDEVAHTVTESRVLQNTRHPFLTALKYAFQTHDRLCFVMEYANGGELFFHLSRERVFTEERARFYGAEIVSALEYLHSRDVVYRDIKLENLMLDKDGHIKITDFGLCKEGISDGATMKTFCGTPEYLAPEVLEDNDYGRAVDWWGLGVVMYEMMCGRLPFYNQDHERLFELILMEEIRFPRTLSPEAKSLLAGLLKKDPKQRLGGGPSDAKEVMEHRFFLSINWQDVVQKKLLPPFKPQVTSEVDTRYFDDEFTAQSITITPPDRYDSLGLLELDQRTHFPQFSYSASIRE

Molecule O=C(c1cc2cc(O)ccc2[nH]1)c1cc2cc(O)ccc2[nH]1 has a residual activity (AKT1 (human)) of 98.2%, a residual activity (AKT2 (human)) of 104% and a residual activity (CHEK1 (human)) of 82.5%. For the same molecule, the residual activity (CSNK1G2 (human)) was 93.8%, the residual activity (EPHA3 (human)) was 101% and the residual activity (EPHA7 (human)) was 101%. The residual activity (EPHB3 (human)) was 92.3%, the residual activity (EPHB4 (human)) was 89.3% and the residual activity (FES (human)) was 95.3%. The residual activity (FGFR3 (human)) was 92.1%, the residual activity (FLT1 (human)) was 81.3% and the residual activity (FRK (human)) was 86.1%. For the same molecule, the residual activity (HIPK1 (human)) was 94.3%, the residual activity (HIPK2 (human)) was 102% and the residual activity (IKBKE (human)) was 81.6%. For the same molecule, the residual activity (MAP3K10 (human)) was 91.7%, the residual activity (MAP3K5 (human)) was 89.6% and the residual activity (MAP3K9 (human)) was 42.6%. It also gave a residual activity (MAP4K2 (human)) of 67.1%, a residual activity (MAPK1 (human)) of 113% and a residual activity (MAPK3 (human)) of 107%. For the same molecule, the residual activity (MAPK8 (human)) was 112%, the residual activity (MAPK9 (human)) was 116% and the residual activity (MINK1 (human)) was 9.87%. For the same molecule, the residual activity (MLTK (human)) was 34.3%, the residual activity (PAK6 (human)) was 74.4% and the residual activity (PAK7 (human)) was 85.3%. It also gave a residual activity (PBK (human)) of 100%, a residual activity (PDGFRB (human)) of 41.7% and a residual activity (PIM1 (human)) of 76.1%. The residual activity (PIM2 (human)) was 108%, the residual activity (PLK1 (human)) was 101% and the residual activity (PNCK (human)) was 105%. The residual activity (PRKCA (human)) was 84.1%, the residual activity (PRKCI (human)) was 98.4% and the residual activity (RET (human)) was 8.98%. For the same molecule, the residual activity (RPS6KA2 KD1 KD2 (human)) was 22.2%, the residual activity (SYK (human)) was 72% and the residual activity (TGFBR2 (human)) was 123%. The residual activity (TSSK2 (human)) was 93.6%, the residual activity (TXK (human)) was 74.9% and the residual activity (ULK2 (human)) was 94.5%.
In the case of COc1ccc2c(c1)c(C1=C(c3c[nH]c4ccccc34)C(=O)NC1=O)cn2CCCN(C)C, the residual activity (AKT1 (human)) is reported as 99%, the residual activity (AKT2 (human)) is reported as 110% and the residual activity (CHEK1 (human)) is reported as 88.8%. It also gave a residual activity (CSNK1G2 (human)) of 82.2%, a residual activity (EPHA3 (human)) of 94.1% and a residual activity (EPHA7 (human)) of 88.8%. For the same molecule, the residual activity (EPHB3 (human)) was 97%, the residual activity (EPHB4 (human)) was 94.2% and the residual activity (FES (human)) was 120%. The residual activity (FGFR3 (human)) was 87.5%, the residual activity (FLT1 (human)) was 22% and the residual activity (FRK (human)) was 91.3%. For the same molecule, the residual activity (HIPK1 (human)) was 77.7%, the residual activity (HIPK2 (human)) was 96.3% and the residual activity (IKBKE (human)) was 100%. The residual activity (MAP3K10 (human)) was 83.4%, the residual activity (MAP3K5 (human)) was 95.1% and the residual activity (MAP3K9 (human)) was 57.6%. For the same molecule, the residual activity (MAP4K2 (human)) was 56.3%, the residual activity (MAPK1 (human)) was 102% and the residual activity (MAPK3 (human)) was 93%. For the same molecule, the residual activity (MAPK8 (human)) was 80%, the residual activity (MAPK9 (human)) was 86.1% and the residual activity (MINK1 (human)) was 78.6%. For the same molecule, the residual activity (MLTK (human)) was 95.9%, the residual activity (PAK6 (human)) was 70.4% and the residual activity (PAK7 (human)) was 67.6%. The residual activity (PBK (human)) was 96.8%, the residual activity (PDGFRB (human)) was 75.8% and the residual activity (PIM1 (human)) was 11.6%. It also gave a residual activity (PIM2 (human)) of 90.5%, a residual activity (PLK1 (human)) of 104% and a residual activity (PNCK (human)) of 103%. It also gave a residual activity (PRKCA (human)) of 3.14%, a residual activity (PRKCI (human)) of 67.6% and a residual activity (RET (human)) of 79.9%. The residual activity (RPS6KA2 KD1 KD2 (human)) was 5.46%, the residual activity (SYK (human)) was 68.5% and the residual activity (TGFBR2 (human)) was 120%. The residual activity (TSSK2 (human)) was 85.5%, the residual activity (TXK (human)) was 82.8% and the residual activity (ULK2 (human)) was 96.1%.
Work on CN(C)c1ccc(/C=C2\C(=O)Nc3ccccc32)cc1 yielded a residual activity (AKT1 (human)) of 101%, a residual activity (AKT2 (human)) of 98.1% and a residual activity (CHEK1 (human)) of 98.2%. For the same molecule, the residual activity (CSNK1G2 (human)) was 96.7%, the residual activity (EPHA3 (human)) was 102% and the residual activity (EPHA7 (human)) was 99.1%. The residual activity (EPHB3 (human)) was 94.9%, the residual activity (EPHB4 (human)) was 97.4% and the residual activity (FES (human)) was 97.8%. For the same molecule, the residual activity (FGFR3 (human)) was 96.3%, the residual activity (FLT1 (human)) was 92% and the residual activity (FRK (human)) was 102%. The residual activity (HIPK1 (human)) was 103%, the residual activity (HIPK2 (human)) was 106% and the residual activity (IKBKE (human)) was 98.2%. The residual activity (MAP3K10 (human)) was 96.6%, the residual activity (MAP3K5 (human)) was 99.4% and the residual activity (MAP3K9 (human)) was 90.2%. It also gave a residual activity (MAP4K2 (human)) of 109%, a residual activity (MAPK1 (human)) of 96.4% and a residual activity (MAPK3 (human)) of 102%. The residual activity (MAPK8 (human)) was 103%, the residual activity (MAPK9 (human)) was 103% and the residual activity (MINK1 (human)) was 79%. It also gave a residual activity (MLTK (human)) of 96.5%, a residual activity (PAK6 (human)) of 96.9% and a residual activity (PAK7 (human)) of 101%. It also gave a residual activity (PBK (human)) of 101%, a residual activity (PDGFRB (human)) of 85.8% and a residual activity (PIM1 (human)) of 101%. It also gave a residual activity (PIM2 (human)) of 82.4%, a residual activity (PLK1 (human)) of 103% and a residual activity (PNCK (human)) of 102%. The residual activity (PRKCA (human)) was 94.5%, the residual activity (PRKCI (human)) was 101% and the residual activity (RET (human)) was 78%. The residual activity (RPS6KA2 KD1 KD2 (human)) was 89.1%, the residual activity (SYK (human)) was 90.4% and the residual activity (TGFBR2 (human)) was 124%. The residual activity (TSSK2 (human)) was 101%, the residual activity (TXK (human)) was 96.1% and the residual activity (ULK2 (human)) was 97.1%.
In the case of COc1cc2ncnc(Nc3ccc(Oc4ccccc4)cc3)c2cc1OC, the residual activity (AKT1 (human)) is reported as 107%, the residual activity (AKT2 (human)) is reported as 99.4% and the residual activity (CHEK1 (human)) is reported as 97.4%. For the same molecule, the residual activity (CSNK1G2 (human)) was 99.9%, the residual activity (EPHA3 (human)) was 101% and the residual activity (EPHA7 (human)) was 100%. It also gave a residual activity (EPHB3 (human)) of 103%, a residual activity (EPHB4 (human)) of 85.5% and a residual activity (FES (human)) of 99.6%. The residual activity (FGFR3 (human)) was 87.1%, the residual activity (FLT1 (human)) was 79.8% and the residual activity (FRK (human)) was 72.2%. For the same molecule, the residual activity (HIPK1 (human)) was 102%, the residual activity (HIPK2 (human)) was 94.8% and the residual activity (IKBKE (human)) was 101%. For the same molecule, the residual activity (MAP3K10 (human)) was 96.7%, the residual activity (MAP3K5 (human)) was 107% and the residual activity (MAP3K9 (human)) was 57.7%. The residual activity (MAP4K2 (human)) was 104%, the residual activity (MAPK1 (human)) was 99.8% and the residual activity (MAPK3 (human)) was 105%. For the same molecule, the residual activity (MAPK8 (human)) was 91.8%, the residual activity (MAPK9 (human)) was 99% and the residual activity (MINK1 (human)) was 101%. It also gave a residual activity (MLTK (human)) of 95.2%, a residual activity (PAK6 (human)) of 109% and a residual activity (PAK7 (human)) of 103%. It also gave a residual activity (PBK (human)) of 92.6%, a residual activity (PDGFRB (human)) of 95.6% and a residual activity (PIM1 (human)) of 102%. It also gave a residual activity (PIM2 (human)) of 107%, a residual activity (PLK1 (human)) of 96.4% and a residual activity (PNCK (human)) of 97.7%. The residual activity (PRKCA (human)) was 101%, the residual activity (PRKCI (human)) was 108% and the residual activity (RET (human)) was 40.6%. The residual activity (RPS6KA2 KD1 KD2 (human)) was 98%, the residual activity (SYK (human)) was 98.6% and the residual activity (TGFBR2 (human)) was 137%. For the same molecule, the residual activity (TSSK2 (human)) was 103%, the residual activity (TXK (human)) was 78% and the residual activity (ULK2 (human)) was 97.8%.
